Experimental data from patent publication US10201532B2, “Compounds and their use” (ALLECRA THERAPEUTICS GMBH, priority 2010, dated 2019).
One block for each compound: values may come before it.

Assays:
[1] = tested on: KPC-2 producing K. pneumoniae (ATCC BAA-1705); assay: Synergistic broth micro-dilution MIC (checkerboard); format: cell-based, Klebsiella pneumoniae; settings: ATCC BAA-1705; for MIC: Klebsiella pneumoniae, ATCCBAA1705, no BLI, read-out: MIC of antibiotic alone (no BLI)
[2] = tested on: KPC-3 expressing E. coli (J53 R6206); assay: as above; format: cell-based, Escherichia coli
[3] = tested on: KPC2 K. pneumoniae ATCC BAA 1705; assay: Mice systemic infection model; format: in vivo; settings: Klebsiella pneumoniae, BAA1705; mice, sub-cutaneous; read-out: ED50 of Doripenem alone
Protocol: Female Swiss Albino mice, weighing 18-22 g were used for all studies. For each dose group, 5 or 6 mice were included. Study protocols were reviewed and approved by Institutional Animal Ethical Committee, Orchid Research Laboratories Limited. Mice were housed in individually ventilated cages provided with food and water ad libitum, throughout the study period. From overnight culture in Brain-Heart Infusion agar medium, challenge inoculum with required bacterial density was prepared in normal saline containing Hog gastric mucin. In studies involved with doripenem, washed bacterial cells was used. Each mouse was infected […] inoculum by intra-peritoneal injection.
Infected mice were dosed sub-cutaneously, with drug preparations at three different time points post-infection.
Imipenem with BLI combinations: Increasing concentrations of Imipenem as single agent or in combination with fixed concentration of BLIs were used to dose infected mice, sub-cutaneously. In this experiment Imipenem was always administered along with cilastatin. Doripenem with BLI combinations: Increasing concentrations of doripenem as single agent or in combination with fixed concentration of BLIs were used to dose infected mice, sub-cutaneously.
Survival of the treated mice were monitored twice a day, up to 7 days post-infection. Efficacy dose 50 (ED50) was calculated by Reed and Muench method (Reed, L. J.; Muench, H. “A simple method of estimating fifty percent endpoints”. The American Journal of Hygiene, 1938, 27: 493-497.).

[4] = tested on: KPC2 K. pneumoniae ATCC BAA 1705; assay: Neutropenic mice thigh infection model (human adapted model); format: in vivo; settings: Doripenem 70 mg/kg fractionated over 5.5 h; end point 8 h
Protocol: Female Swiss Albino mice weighing 24-30 g were used for all studies. Study protocols were reviewed and approved by Institutional Animal Ethical Committee, Orchid Research Laboratories Limited. Mice were rendered neutropenic by intra-peritoneal cyclophosphamide injections. Log phase culture in brain heart infusion broth was injected in to mice thighs. Imipenem or Doripenen alone or in combination were administered sub-cutaneously in decreasing fractionated doses every 15 minutes over the period of 5.5 h (Flückiger, U. et al. “Integration of pharmacokinetics and pharmacodynamics of Imipenem in a human-adapted mouse model’. Antimicrobial Agents and Chemother, 1991, 35(9): 1905-1910). The Compound-1 or tazobactam was administered sub-cutaneously as bolus dose at the start of dosing. Efficacy end point was 6 h in Imipenem studies and 8 h in Doripenen studies.
Three experiments were carried out where Doripenen alone or in combination with compound-1 or tazobactam (two experiments) were evaluated. Doripenem 70 mg/kg was administered in fractionated doses over the period of 5.5 h (Fluckiger, U. et al. “Integration of pharmacokinetics and pharmacodynamics of Imipenem in a human-adapted mouse model’. Antimicrobial Agents and Chemother., 1991, 35(9): 1905-1910). Compound-1 or tazobactam was administered as bolus dose at initiation of therapy. Efficacy end point was 8 h after initiation of therapy.

E. coli Ecoli233 (KPC3) = assay: Synergistic broth micro-dilution MIC; format: cell-based, Escherichia coli
[5] = tested on: KPC-3 expressing E. coli (J53 R6206); assay: microbe, parasite or virus in culture; format: cell-based, Escherichia coli; settings: no BLI; E. coli J53 R6206
Protocol: The β-lactam compound was tested for in vitro antibacterial activities by the broth micro-dilution or agar dilution method as specified in documents published by Clinical and Laboratory Standards Institute (CLSI), USA (formerly NCCLS). Approved standard M7-A7, January 2006, CLSI, Wayne, Pa., USA and M100-S18, January 2008, CLSI, Wayne, Pa., USA.
In agar dilution method briefly, stock solutions of the cephalosporins for veterinary use (e.g. 2 mg/mL) was made in water, 0.1M phosphate buffers or appropriate solvents and the solution was serially two fold diluted. Compound-1 was dissolved in water and Tazobactam (comparator BLI) in 0.1M phosphate buffer, pH 6.0 to get a solution of 1 mg/mL. Cephalosporins were screened in a concentration range of 0.5-32 μg/mL. For combination, Tazobactam or the Compound-1 described herein were tested at a fixed concentration of 4 μg/mL along with the cephalosporins concentration ranging from 0.5 to 32 μg/mL. […] The compound of formula (I) and Tazobactam were also tested individually. The bacterial inoculum was prepared by picking 3 to 5 well isolated bacterial colonies with the same morphological appearance from an 18-24 h old culture and adjusting the turbidity of the saline suspension to 0.5 McFarland turbidity standard equivalent to a bacterial population of ˜1×10^8 CFU per mL of suspension. The suspension was diluted 1:10 in saline to get a bacterial population of ˜1×10^7 CFU/mL as inoculum. This bacterial inoculum was inoculated onto the prepared petri dishes by a multipoint inoculator with each inoculum spot containing ˜1×10^4 CFU of the bacterial strain. The inoculated petri dishes were incubated at 35° C. in an ambient atmosphere for 18-20 h.

SMILES: CC(C)(C)OC(=O)C[n+]1ccn(C[C@@]2(C)[C@H](C(=O)O)N3C(=O)C[C@H]3S2(=O)=O)n1 [Compound-6, 1-{[(2S,3S,5R)-2-Carboxy-3-methyl-4,4,7-trioxo-4-thia-1-azabicyclo[3.2.0]hept-3-yl]methyl}-3-(2-t-butoxy-2-oxoethyl)-1H-1,2,3-triazol-3-ium]
- MIC of BLI alone [1]: >16 µg/mL
- MIC of Imipenem in combination with BLI ([1]; BLI at 4 μg/mL): 8 µg/mL
- MIC of Meropenem in combination with BLI ([1]; BLI at 4 μg/mL): 16 µg/mL
- MIC of Imipenem in combination with BLI ([1]; BLI at 16 μg/mL): 8 µg/mL
- MIC of Meropenem in combination with BLI ([1]; BLI at 16 μg/mL): 4 µg/mL
- MIC of BLI alone [2]: >16 µg/mL
- MIC of Imipenem in combination with BLI ([2]; BLI at 4 μg/mL): 1 µg/mL
- MIC of Meropenem in combination with BLI ([2]; BLI at 4 μg/mL): 0.5 µg/mL
- MIC of Imipenem in combination with BLI ([2]; BLI at 16 μg/mL): 0.5 µg/mL
- MIC of Meropenem in combination with BLI ([2]; BLI at 16 μg/mL): <0.125 µg/mL

SMILES: C[C@@H](O)[C@H]1C(=O)N2C(C(=O)O)=C(S[C@@H]3CN[C@H](CNS(N)(=O)=O)C3)[C@H](C)[C@H]12 [Doripenem]
- ED50 [3]: 14.1 mg/kg
- Bacterial load (range), Doripenem alone [4]: 5.4E+06-2.6E+07 CFU/thigh

SMILES: Nc1nc(/C(=N/O)C(=O)N[C@@H]2C(=O)N3C(C(=O)O)=C(/C=C4\CCN([C@@H]5CCNC5)C4=O)CS[C@H]23)ns1 [Ceftobiprole]
- MIC [1]: > 64 µg/mL
- MIC of antibiotic alone (no BLI) [2]: >32 µg/mL

- MIC of Imipenem in combination with BLI (E. coli Ecoli233 (KPC3); BLI at 4 μg/mL): 8 µg/mL
- MIC of Imipenem in combination with BLI (E. coli Ecoli233 (KPC3); BLI at 16 μg/mL): 1 µg/mL
- MIC of Imipenem in combination with BLI ([1]; BLI at 4 μg/mL): 2 µg/mL
- MIC of Imipenem in combination with BLI ([1]; BLI at 16 μg/mL): 2 µg/mL
SMILES: Cc1cn(C[C@@]2(C)[C@H](C(=O)[O-])N3C(=O)C[C@H]3S2(=O)=O)c[n+]1C [Compound-13, (2S,3S,5R)-3-Methyl-3-(4-methyl-3-methyl-imidazol-3-ium-1-ylmethyl)-4,4,7-trioxo-4-thia-1-aza-bicyclo[3.2.0]heptane-2-carboxylate]

SMILES: CO/N=C(\C(=O)N[C@@H]1C(=O)N2C(C(=O)[O-])=C(C[N+]3(C)CCCC3)CS[C@H]12)c1csc(N)n1 [Cefepime]
- MIC [1]: > 128 µg/mL
- MIC of antibiotic alone (no BLI) [2]: >16 µg/mL

- MIC [1]: > 64 µg/mL
SMILES: C[C@@H](O)[C@H]1C(=O)N2C(C(=O)O)=C(S[C@@H]3CN[C@H](C(=O)Nc4cccc(C(=O)O)c4)C3)[C@H](C)[C@H]12 [Ertapenem]

SMILES: CCOC(=O)CNC(=O)C[n+]1ccn(C[C@@]2(C)[C@H](C(=O)O)N3C(=O)C[C@H]3S2(=O)=O)n1 [Compound-8, 1-{[(2S,3S,5R)-2-Carboxy-3-methyl-4,4,7-trioxo-4-thia-1-azabicyclo[3.2.0]hept-3-yl]methyl}-3-{2[(2-ethoxy-2-oxoethyl)amino]-2-oxoethyl}-1H-1,2,3-triazol-3-ium]
- MIC of BLI alone [1]: >16 µg/mL
- MIC of Imipenem in combination with BLI ([1]; BLI at 4 μg/mL): 8 µg/mL
- MIC of Meropenem in combination with BLI ([1]; BLI at 4 μg/mL): 8 µg/mL
- MIC of Imipenem in combination with BLI ([1]; BLI at 16 μg/mL): 4 µg/mL
- MIC of Meropenem in combination with BLI ([1]; BLI at 16 μg/mL): 4 µg/mL
- MIC of BLI alone [2]: >16 µg/mL
- MIC of Imipenem in combination with BLI ([2]; BLI at 4 μg/mL): 1 µg/mL
- MIC of Meropenem in combination with BLI ([2]; BLI at 4 μg/mL): 0.25 µg/mL
- MIC of Imipenem in combination with BLI ([2]; BLI at 16 μg/mL): 0.25 µg/mL
- MIC of Meropenem in combination with BLI ([2]; BLI at 16 μg/mL): <0.125 µg/mL

SMILES: C[C@@H](O)[C@H]1C(=O)N2C(C(=O)O)=C(S[C@@H]3CN[C@H](C(=O)N(C)C)C3)[C@H](C)[C@H]12 [Meropenem]
- MIC [1]: 32 to 64 µg/mL
- MIC of antibiotic alone (no BLI) [2]: 2 to 4 µg/mL

SMILES: CC1=C(C(=O)O)N2C(=O)[C@@H](NC(=O)[C@H](N)c3ccc(O)cc3)[C@H]2SC1 [Cefadroxil]
- MIC [1]: > 64 µg/mL
- MIC of veterinary cephalosporin alone (no BLI) [5]: >32 µg/mL
